Reference: patent publication US11141462B2, “Method for the treatment or prevention of osteoarthritis” (Chondropeptix B.V., priority 2016, dated 2021)

System: OA articular chondrocytes
Experiment: OA chondrocyte phenotype gene expression screening of BMP-7 peptides (RT-qPCR)
Format: cell-based, human
Set-up: key to COX-2 / COL2A1 / SOX9: [+] denotes a significantly increased expression of chondrogenic marker genes SOX9 and COL2A1, or a significantly decreased expression of OA phenotypic marker COX-2 in OA articular chondrocytes, in comparison to untreated OA articular chondrocytes; key to IL-6 / ADAMTS5 / COL10A / BAPX1/NKX3.2 / ALP / RUNX2: —: [-] denotes the absence of a significant effect or a significantly decreased expression of chondrogenic marker genes BAPX1/NKX3.2, or a significantly increased expression of OA phenotypic markers IL-6, ADAMTS5, COL10A, ALP and RUNX2 in OA articular chondrocytes, in comparison to untreated OA articular chondrocytes
Details: for COL2A1 / COX-2 / SOX9: Table 5
Protocol: (§1) FIG. 2: The action of 20-mer peptides (10 nM) of SEQ ID NO: 2-17 (peptides with 1 or 2 amino acids intervals (18-19 amino acid overlap)) and a random peptide with a sequence according to SEQ ID NO: 49 on the expression of ADAMTS5 was determined on a validated pool of passage 2 OA human articular chondrocytes (n=18) and compared to full-length recombinant BMP-7 (1 nM). Samples were harvested after 24 hours and analyzed for indicated genes by RT-qPCR (normalized for 28S rRNA expression and relative to control conditions (no peptide exposure)). In the graphs, numbers on the x-axis represent individual peptides according to their SEQ ID NO's, error bars represent mean±SEM, statistical differences were calculated (one-way ANOVA with bonferroni correction) to control condition. *=p<0.05 lower than control condition for ADAMTS5. Random peptide is a peptide according to SEQ ID NO: 49.
as §1, with “3:” for “2:”, “ALP” for “ADAMTS5”, “ALP.” for “ADAMTS5.”
as §1, with “4:” for “2:”, “BAPX1/NKX3.2” for “ADAMTS5”, “BAPX1/NKX3.2.” for “ADAMTS5.”
as §1, with “5:” for “2:”, “COL10A1” for “ADAMTS5”, “COL10A1.” for “ADAMTS5.”
FIG. 6: The action of 20-mer peptides (10 nM) of SEQ ID NO: 2-17 (peptides with 1 or 2 amino acids intervals (18-19 amino acid overlap)) and a random peptide with a sequence according to SEQ ID NO: 49 on the expression of IL-6 was determined on a validated pool of passage 2 OA human articular chondrocytes (n=18) and compared to full-length recombinant BMP-7 (1 nM). […]

[1] = Table 2 (FIG. 2: 10 nM, 24 hours, RT-qPCR, 28S rRNA normalized), vs untreated OA articular chondrocytes
[2] = Table 2 (FIG. 3: 10 nM, 24 hours, RT-qPCR, 28S rRNA normalized), vs untreated OA articular chondrocytes
[3] = Table 2 (FIG. 4: 10 nM, 24 hours, RT-qPCR, 28S rRNA normalized), vs untreated OA articular chondrocytes
[4] = Table 2 (FIG. 5: 10 nM, 24 hours, RT-qPCR, 28S rRNA normalized), vs untreated OA articular chondrocytes
[5] = Table 2 (FIG. 6: 10 nM, 24 hours, RT-qPCR, 28S rRNA normalized), vs untreated OA articular chondrocytes
[6] = Table 2 (FIG. 7: 10 nM, 24 hours, RT-qPCR, 28S rRNA normalized), vs untreated OA articular chondrocytes
[7] = gene expression in OA articular chondrocytes vs untreated
[8] = Table 1, gene expression in OA articular chondrocytes vs untreated

Substance	ADAMTS5 [1]	ALP [2]	BAPX1/NKX3.2 [3]	COL10A [4]	IL-6 [5]	RUNX2 [6]	COL2A1 [7]	COX-2 [7]	SOX9 [7]	ADAMTS5 [8]	ALP [8]	BAPX1/NKX3.2 [8]	COL10A [8]	IL-6 [8]	RUNX2 [8]
1 (FINPETVPKPSSAPTQLNAISVLYFDDSSNVILKKYRNMVVRASGSH; listed as Homo sapiens) [compound 1]	—	—	—	—	—	—									
2 (FINPETVPKPSSAPTQLNAI; listed as Homo sapiens) [compound 2]	—	—	—	—	—	—									
3 (NPETVPKPSSAPTQLNAISV; listed as Homo sapiens) [compound 3]	—	—	—	—	—	—									
4 (ETVPKPSSAPTQLNAISVLY; listed as Homo sapiens) [compound 4]	—	—	—	—	—	—									
5 (VPKPSSAPTQLNAISVLYFD; listed as Homo sapiens) [compound 5]	—	—	—	—	—	+									
6 (PKPSSAPTQLNAISVLYFDD; listed as Homo sapiens) [compound 6]	+	+	+	+	+	+	+	+	+						
7 (KPSSAPTQLNAISVLYFDDS; listed as Homo sapiens) [compound 7]	+	+	+	+	+	+	+	+	+						
8 (SSAPTQLNAISVLYFDDSSN; listed as Homo sapiens) [compound 8]	+	+	+	+	+	+	+	+	+						
9 (APTQLNAISVLYFDDSSNVI; listed as Homo sapiens) [compound 9]	+	+	+	-	+	+	+	+	+						
10 (TQLNAISVLYFDDSSNVILK; listed as Homo sapiens) [compound 10]	+	+	+	-	+	+	+	+	+						
11 (LNAISVLYFDDSSNVILKKY; listed as Homo sapiens) [compound 11]	+	+	+	+	+	+	+	+	+						
12 (AISVLYFDDSSNVILKKYRN; listed as Homo sapiens) [compound 12]	+	+	+	+	+	+	+	+	+						
13 (SVLYFDDSSNVILKKYRNMV; listed as Homo sapiens) [compound 13]	+	+	+	+	+	+	+	+	+						
14 (LYFDDSSNVILKKYRNMVVR; listed as Homo sapiens) [compound 14]	+	+	+	+	+	—	+	+	+						
15 (FDDSSNVILKKYRNMVVRAS; listed as Homo sapiens) [compound 15]	+	+	+	+	+	—	+	+	+						
16 (DSSNVILKKYRNMVVRASGS; listed as Homo sapiens) [compound 16]	+	+	+	+	+	—	+	+	+						
17 (SSNVILKKYRNMVVRASGSH; listed as Homo sapiens) [compound 17]	+	+	+	+	+	+	+	+	+						
18 (PKPSSAPTQLNAISVLYFDDSSNVILKKYRNMVVRASGSH; listed as Homo sapiens) [compound 18]	+	+	+	+	+	+									
19 (STGSKQRSQNRSKTPKNQEA; listed as Homo sapiens) [compound 19]										—	—	—	—	—	—
20 (KTPKNQEALRMANVAENSSSSSDQRQACKK; listed as Homo sapiens) [compound 20]										—	—	—	—	—	—
21 (SSDQRQACKKHELYVSFRDL; listed as Homo sapiens) [compound 21]										—	—	—	—	—	—
